The values that follow come from publication PMC10818749, “Toxicity Studies of Cardiac-Targeting Peptide Reveal a Robust Safety Profile” (Pharmaceutics, 2024).

“Also recorded” adds a separate entry of the source. Ends that are not written are not given here.

The target in one series is T1, COX1 (Homo sapiens, UniProt P23219).
T1 construct: purchased BPS Bioscience
Description: COX1 enzymatic assay. It counts as biochemical. Conditions: up to 30 µM. Here is the method:
Enzymatic Assays: AChE, COX1, COX2, MAOA, PDE3A, and PDE4D2 activity assays were performed to determine CTP effects on each individual enzyme. Fluorescence was read using a PerkinElmer Envision, and percentage inhibition and compound activity calculated. […]
in complementation with EA generating a unit of active β-gal and based assay for the detection of dopamine, norepinephrine or sero-production of a chemiluminescent signal upon the addition of Path- tonin transporter activity in cells expressing these transporters. The Hunter detection reagents. kit employs a fluorescent substrate that mimics the biogenic amine neurotransmitters that are taken into the cell through these specific transporters, resulting in increased intracellular fluorescence inten-sity. […]
KINOMEscan® Assay fluorescence for improved signal/noise ratio. […]
Compounds that bind the kinase active site and directly (sterically) be monitored within a single experiment. or indirectly (allosterically) prevent kinase binding to the immobi-lized ligand, will reduce the amount of kinase captured on the solid Calcium Assay […]
kinase have no effect on the amount of kinase captured on the of changes in intracellular calcium. […] Upon stimulation, a quantitative, precise and ultra-sensitive qPCR method that detects the receptor signals release of intracellular calcium, which results in the associated DNA label (D). […]

The next series relates to seven ion channels. Description: Eurofins Ion Channel Cardiac Profiler Panel (all seven channels). It counts as cell-based, human. The following applies: CTP 0.1 to 30 µM.
In another series the target is KvLQT1/minK (Homo sapiens, UniProt P15382+P51787). Kind of series: KvLQT1/minK ion channel assay. Conditions: SAFETYscan ion channel assay, up to 30 µM. It counts as cell-based. Here is the method:
Ion Channel Assays: Cell lines were grown, plated, and loaded with 1× loading buffer containing 1× dye and 2.5 mM freshly prepared probenecid. Assays were performed, and activity was measured using a FLIPR Tetra. Percent of activation and percent of inhibition were calculated to determine agonist and antagonist activity, respectively. […]
The FLIPR Potassium Assay Kit from Molecular Devices is used. It exploits the permeability of thallium ions (Tl+) through both voltage-and ligand-gated potassium (K+) channels. A novel, highly-sensiti ve
Tl+ indicator dye is utilized which produces a bright fluorescent signal upon the binding to Tl+ conducted through potassium chan-nels. […]
KINOMEscan® Assay fluorescence for improved signal/noise ratio.
The KINOMEscan screening platform employs a novel and propri- Membrane Potential Assay etary active site-directed competition binding assay to quantitatively The FLIPR® Membrane Potential Assay Kit is used which utilizes a pro-measure interactions between test compounds and the kinases. prietary fluorescent indicator dye in combination with a quencher to This robust and reliable assay technology affords investigators the reflect real-time membrane potential changes associated with ion ability to extensively annotate compounds with accurate, precise channel activation and ion transporter proteins. […]

For a further series, the target named is CHO-hERG (Homo sapiens, UniProt Q12809).
Chain of CHO-hERG (Q12809 whole entry): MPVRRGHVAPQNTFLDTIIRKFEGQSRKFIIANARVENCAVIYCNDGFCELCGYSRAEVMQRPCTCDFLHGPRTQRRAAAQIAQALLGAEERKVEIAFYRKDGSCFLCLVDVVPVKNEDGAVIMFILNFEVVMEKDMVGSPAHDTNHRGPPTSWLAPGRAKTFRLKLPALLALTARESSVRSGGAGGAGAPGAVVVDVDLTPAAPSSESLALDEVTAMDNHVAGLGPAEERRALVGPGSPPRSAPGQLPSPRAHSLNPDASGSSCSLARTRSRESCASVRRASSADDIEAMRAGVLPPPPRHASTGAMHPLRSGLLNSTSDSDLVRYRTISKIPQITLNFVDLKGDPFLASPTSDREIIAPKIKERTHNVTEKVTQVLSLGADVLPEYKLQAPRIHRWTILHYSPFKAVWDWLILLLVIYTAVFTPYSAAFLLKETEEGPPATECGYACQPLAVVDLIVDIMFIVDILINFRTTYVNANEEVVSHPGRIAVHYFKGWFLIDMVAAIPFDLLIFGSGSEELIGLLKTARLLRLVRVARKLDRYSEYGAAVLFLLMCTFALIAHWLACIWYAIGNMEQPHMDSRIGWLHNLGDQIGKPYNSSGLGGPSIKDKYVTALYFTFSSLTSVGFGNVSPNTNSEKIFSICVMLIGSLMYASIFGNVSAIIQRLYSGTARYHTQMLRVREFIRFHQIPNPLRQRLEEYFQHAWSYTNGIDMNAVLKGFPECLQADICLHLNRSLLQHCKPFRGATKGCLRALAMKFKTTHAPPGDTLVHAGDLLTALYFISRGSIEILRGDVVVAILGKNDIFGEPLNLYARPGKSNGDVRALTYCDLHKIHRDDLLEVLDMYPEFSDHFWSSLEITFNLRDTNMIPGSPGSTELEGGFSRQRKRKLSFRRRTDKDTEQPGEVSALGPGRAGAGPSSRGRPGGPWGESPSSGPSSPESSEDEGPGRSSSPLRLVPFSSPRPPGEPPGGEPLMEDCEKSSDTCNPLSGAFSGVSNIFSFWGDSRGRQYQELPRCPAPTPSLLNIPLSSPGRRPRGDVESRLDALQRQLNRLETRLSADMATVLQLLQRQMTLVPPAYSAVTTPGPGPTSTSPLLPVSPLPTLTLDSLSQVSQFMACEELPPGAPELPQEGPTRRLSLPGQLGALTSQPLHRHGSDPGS
The target in a further series is HEK-Cav1.2 (Homo sapiens, UniProt Q13936). The following applies: CTP 0.1 to 30 µM; HEK cells; -100mV to +20mV; 0.1% Pluronic F-68.
In another series the target is CHO-KCNQ1/minK (Homo sapiens, UniProt P15382+P51787). The following applies: CTP 0.1 to 30 µM; CHO cells; step to +60mV; 0.1% Pluronic F-68.

Chain of KvLQT1/minK (P51787 whole entry): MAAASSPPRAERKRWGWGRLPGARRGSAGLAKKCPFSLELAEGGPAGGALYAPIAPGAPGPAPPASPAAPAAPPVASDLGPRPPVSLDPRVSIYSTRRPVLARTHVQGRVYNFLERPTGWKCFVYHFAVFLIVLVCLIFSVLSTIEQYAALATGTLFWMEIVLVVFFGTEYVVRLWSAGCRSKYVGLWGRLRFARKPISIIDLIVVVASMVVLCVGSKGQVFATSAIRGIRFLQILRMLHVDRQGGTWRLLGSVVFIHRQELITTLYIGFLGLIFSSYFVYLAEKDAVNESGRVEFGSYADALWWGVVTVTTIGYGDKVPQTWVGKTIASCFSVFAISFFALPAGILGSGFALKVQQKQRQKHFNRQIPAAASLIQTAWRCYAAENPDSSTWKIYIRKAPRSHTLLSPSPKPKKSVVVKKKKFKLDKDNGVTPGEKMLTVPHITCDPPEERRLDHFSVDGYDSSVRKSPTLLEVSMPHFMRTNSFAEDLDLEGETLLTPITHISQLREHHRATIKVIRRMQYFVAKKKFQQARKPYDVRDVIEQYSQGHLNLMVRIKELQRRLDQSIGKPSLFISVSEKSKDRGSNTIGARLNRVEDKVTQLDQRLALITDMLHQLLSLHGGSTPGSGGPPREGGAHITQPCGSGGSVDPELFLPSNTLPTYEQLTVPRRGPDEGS
T1 sequence (P23219 24-599): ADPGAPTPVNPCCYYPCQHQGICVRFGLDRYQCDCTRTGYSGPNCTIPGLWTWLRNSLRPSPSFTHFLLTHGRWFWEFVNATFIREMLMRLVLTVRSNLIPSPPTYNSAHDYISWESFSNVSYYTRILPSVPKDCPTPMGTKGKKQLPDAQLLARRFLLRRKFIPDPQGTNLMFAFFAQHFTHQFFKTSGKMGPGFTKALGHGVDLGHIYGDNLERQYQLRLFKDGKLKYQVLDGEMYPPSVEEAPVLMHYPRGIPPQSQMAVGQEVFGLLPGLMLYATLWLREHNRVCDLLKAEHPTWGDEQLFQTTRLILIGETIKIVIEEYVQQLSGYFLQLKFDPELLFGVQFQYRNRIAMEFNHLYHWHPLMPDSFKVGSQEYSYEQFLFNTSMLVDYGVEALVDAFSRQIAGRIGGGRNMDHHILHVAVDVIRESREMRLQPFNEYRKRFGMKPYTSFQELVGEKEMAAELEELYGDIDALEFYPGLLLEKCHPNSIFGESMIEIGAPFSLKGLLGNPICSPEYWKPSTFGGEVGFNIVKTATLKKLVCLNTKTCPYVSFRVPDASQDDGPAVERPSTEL

With APWHLSSQYSRT [CTP], at COX1, the inhibition entry is “some inhibition of COX1 was noted, although it did not reach the set significance threshold”. For the same sequence, the IC50 values result with seven ion channels (seven ion channels) is listed as “not calculable”. Moreover, in the series with seven ion channels (vs control substances), the “inhibition/activation across all seven ion channels” value is reported as “no inhibition/activation was observed; also recorded: did not inhibit the activation of any tested”. Further, the blocking or activation result on KvLQT1/minK is given as “no significant blocking or activation”. In addition, at KvLQT1/minK, the opening action result is recorded as “nor any significant opening action”. In addition, the “Estimated IC50” value on CHO-hERG was “N/C (key: N/C: Not calculable, inhibition >25% was not observed.)”; on HEK-Cav1.2, “N/C (Not calculable, inhibition >25% was not observed.)”; on CHO-KCNQ1/minK it was “N/C (Not calculable, inhibition >25% was not observed.)”.
